The values that follow come from publication PMC10455244, “Alpha-Mangostin: A Potent Inhibitor of TRPV3 and Pro-Inflammatory Cytokine Secretion in Keratinocytes” (International Journal of Molecular Sciences, 2023).

In one data set the test system is TNF-α. The data set can be described thus: ELISA, TNF-α release in NHEK. It counts as cell-based, human. As to conditions: 1 µM with 300 µM carvacrol, 24 h. An excerpt: (§1) Constitutive activation of TRPV3 due to continuous stimulation or the presence of Olmsted mutations causes noticeable skin inflammation due to the increased secretion of pro-inflammatory cytokines from the keratinocytes. Besides, in atopic dermatitis (AD), cytokine release from keratinocytes contributes to the inflammatory environment, which drives many characteristic AD symptoms. Therefore, we determined the effect of TRPV3 activation on cytokine release instead of TRPV3 expression and evaluated whether alpha-mangostin suppressed TRPV3-mediated cytokine secretion in normal human keratinocytes. The levels of secreted cytokines (interleukin (IL)-6, IL-8, and tumor necrosis factor-alpha (TNF-α)) were measured using enzyme-linked Immunosorbent assay (ELISA) kits due to their high sensitivity and quantitation ability. The cells were induced with 300 µM carvacrol, with or without 1 µM alpha-mangostin, and 10 µM 74a.
(§2) Figure 5 Alpha-mangostin (α-MG) inhibited carvacrol-induced cytokine release in NHEK cells and rescued carvacrol-induced cell death. (A) Alpha-mangostin inhibited the carvacrol-induced release of IL-8 and IL-6 in NHEK. Cells were induced by 300 µM carvacrol with or without either 1 µM alpha-mangostin or 10 µM 74a for 24 h before the ELISA assay. (B) Alpha-mangostin reduced cell death caused by carvacrol in human keratinocytes. […]
On the technique in general: ELISA stands for enzyme-linked immunosorbent assay.

In the next data set the test system is human keratinocytes. It counts as cell-based. As to conditions: 0.3 µM with 500 µM carvacrol, 24 h. The protocol: Figure 5 Alpha-mangostin (α-MG) inhibited carvacrol-induced cytokine release in NHEK cells and rescued carvacrol-induced cell death. (A) Alpha-mangostin inhibited the carvacrol-induced release of IL-8 and IL-6 in NHEK. Cells were induced by 300 µM carvacrol with or without either 1 µM alpha-mangostin or 10 µM 74a for 24 h before the ELISA assay. (B) Alpha-mangostin reduced cell death caused by carvacrol in human keratinocytes. Cells were induced by 500 µM carvacrol with or without either 0.3 µM alpha-mangostin or 10 µM 74a for 24 h. The optical density (O.D.) values were normalized to those of the untreated cells. Data are shown as means ± SEM. **** p < 0.0001.
Strong activation of TRPV3 in keratinocytes by carvacrol at concentrations higher than 300 µM was reported to cause cell death. Therefore, we examined the effect of alpha-mangostin in keratinocytes exposed to 500 µM carvacrol.
The cell counting kit-8 (CCK8; Dojindo Laboratories, Kumamoto, Japan) was employed for viability assay. Keratinocytes (10^4 cells/well) plated in 96-well plates were incubated for about one day before exposing them to alpha-mangostin for 24 h. […] The optical density (O.D., 450 nm) of each well was measured after incubating the cells with CCK-8 solution ([…]) for 2 h. […]

The next data set concerns IL-8. The data set can be described thus: ELISA, carvacrol-induced IL-8 release in NHEK. It counts as cell-based, human. The settings on record: 1 µM with 300 µM carvacrol, 24 h.
From the text: as §1, §2

For data set [1], the system named is HEK 293T cells expressing the WT TRPV3. The data set can be described thus: in vitro. In kind it is cell-based, human. As to conditions: 24 h.

With `COc1c(O)cc2oc3cc(O)c(CC=C(C)C)c(O)c3c(=O)c2c1CC=C(C)C` [Alpha-mangostin], the “Effect on TNF-α levels” value with TNF-α is listed as “no changes”. In addition, the “Effect on carvacrol-induced decrease of cell viability” value in the data set on human keratinocytes is “significantly reversed”. Moreover, the “Effect on IL-8 levels” value with IL-8 is “drastically attenuated”. Also, in data set [1] (1 µM alone), the “Increase of viability of cells expressing the WT channel” value was “not statistically significant”. Also, the “Cell viability (normalized O.D., compared with mock cells)” value in data set [1] (human, 1 µM) is recorded as 82.07% ± 1.34.
